Read-outs that look alike come from different tables or passages of the source.
How the values were obtained:
[1] = molecular target: Pandemic H1N1 N-terminal PA endonuclease (PAN) (Influenza A virus, UniProt C3W5S0); assay: FRET-based; format: biochemical
[2] = molecular target: influenza virus polymerase (Influenza A virus, UniProt P03433); assay: cell-based; format: cell-based, influenza virus A/PR/8/34
[3] = Inhibition of polymerase activity EC50
[4] = read-out: Inhibition of polymerase activity EC50

Row | Compound | IC50 [1] | EC50 [2, 3] | further results
1 | O=C1c2c(ccc(O)c2O)CN1Cc1ccccc1 [Compound 14, 2-benzyl-6,7-dihydroxyisoindolin-1-one] | 0.023 to 0.046 µM | 12 µM | –
2 | O=C1c2c(ccc(O)c2O)CN1Cc1ccc(F)c(Cl)c1 [Compound 15, 2-(3-chloro-4-fluorobenzyl)-6,7-dihydroxyisoindolin-1-one] | 0.023 to 0.046 µM | 3.6 µM | EC50/IC50 ratio (cellular versus enzyme assay) [2]: 145
3 | Cc1ccc(CN2Cc3ccc(O)c(O)c3C2=O)cc1 [Compound 16, 2-(4-methylbenzyl)-6,7-dihydroxy-isoindolin-1-one] | – | – | EC50 [2, 4]: 4.1 µM
4 | O=C1c2c(ccc(O)c2O)CN1Cc1ccc(O)cc1 [Compound 17, 2-(4-hydroxybenzyl)-6,7-dihydroxy-isoindolin-1-one] | 0.023 to 0.046 µM | 4.2 µM | Fold increase in EC50 compared to wild-type [2]: 1.0 fold
5 | O=C1c2c(ccc(O)c2O)CN1Cc1ccc(F)cc1 [Compound 18, 2-(4-fluorobenzyl)-6,7-dihydroxyisoindolin-1-one] | 0.023 to 0.046 µM | 8.2 µM | –
6 | O=C1c2c(ccc(O)c2O)CN1Cc1ccc(C(F)(F)F)cc1 [Compound 19, 2-(4-(trifluoromethyl)benzyl)-6,7-dihydroxy-isoindolin-1-one] | – | 19 µM | Reduction of PAN inhibitory activity compared to the 4-F analogue 18 ([1]; factor, relative to 18): 9 fold
7 | O=C1c2c(ccc(O)c2O)CN1Cc1ccc([N+](=O)[O-])cc1 [Compound 20, 2-(4-nitrobenzyl)-6,7-dihydroxy-isoindolin-1-one] | 0.023 to 0.046 µM | 28 µM | –
8 | O=C1c2c(ccc(O)c2O)CN1Cc1ccc2ccccc2c1 [Compound 21, 2-(naphthalen-2-ylmethyl)-6,7-dihydroxy-isoindolin-1-one] | 0.03 µM | 5.4 µM | –
9 | O=C1c2c(ccc(O)c2O)CN1Cc1cccc2ccccc12 [Compound 22, 2-(naphthalen-1-ylmethyl)-6,7-dihydroxy-isoindolin-1-one] | – | 26 µM | –
10 | O=C1c2c(ccc(O)c2O)CN1CCc1ccc(O)cc1 [Compound 23, 2-(4-hydroxyphenethyl)-6,7-dihydroxy-isoindolin-1-one] | – | – | EC50 [2, 4]: 19 µM
11 | NC(=O)c1ncn([C@@H]2O[C@H](CO)[C@@H](O)[C@H]2O)n1 [Ribavirin, ribavirin] | – | 11 µM | –
12 | baloxavir acid [BXA] | – | – | Fold increase in EC50 compared to wild-type [2]: 1.0 fold; EC50 [2, 4]: 0.0016 µM

— article PMC8838982 (Bioorganic chemistry, 2021)
